Patent US20230183179A1, “NOVEL CELL METABOLISM MODULATING COMPOUNDS AND USES THEREOF” (CRESCENTA BIOSCIENCES, priority 2020, published 2023)

Test system: differentiated 3T3-L1 mouse adipocyte cells
Test: Adipocyte glucose consumption in differentiated 3T3-L1 cells (colorimetric glucose assay of the medium)
Format: cell-based
Conditions: 3T3-L1, 24 h, compound 10 μM, loss of glucose from culture medium, mean fold change (compound/DMSO)
Procedure: Activity of compounds on adipocyte glucose consumption was tested in differentiated 3T3-L1 mouse adipocyte cells. 3T3-L1 preadipocytes (ATCC) were routinely cultured in a growth medium composed of DMEM high-glucose (Sigma), 10% FBS (Gibco), 10 U/ml penicillin and 10 μg/ml streptomycin (P/S; Gibco). To induce adipogenic differentiation, a confluent layer of 3T3-L1 cells were incubated with the growth medium containing 2 μM rosiglitazone, 1 μM dexamethasone, 500 μM IBMX, and 1 μg/ml insulin (Sigma). Forty-eight (48) hours later (on day 2) and on days 4 and 6, medium of the cells was replaced with fresh medium containing 1 μg/ml insulin. On days 8 and 10, the medium was refreshed with regular growth medium and addition of insulin was omitted. On day 11, medium of the cells were 10 replaced with fresh medium containing either the indicated compounds (10 μM) or the vehicle in which the compounds were dissolved (DMSO). The final concentration of DMSO was 0.1% (v/v). Growth medium containing 0.1% DMSO was incubated in culture wells containing no cells and used as control. 24 hours later, medium was harvested and subjected to centrifugation at 10,000 g for 5 min. Glucose concentration in the supernatants was determined using a 15 colorimetric assay (Glucose Assay Kit I, Eton Biosciences). Glucose consumption in compound and vehicle treated cells was measured as loss of glucose from the culture medium and represented as mean fold change (compound/DMSO)±standard deviation (SD).

Point of comparison: `CCCCc1ccc2nc(N3CCCC(C(=O)O)C3)cc(-c3cccc(C#N)c3)c2c1` (stereo not drawn) [1-[6-butyl-4-(3-cyanophenyl)quinolin-2-yl]piperidine-3-carboxylic acid], fold induction at 10 µM 0.91. Against it:
- CN(CC(=O)O)c1cc(-c2ccccc2)c2cc(CCc3cnccn3)ccc2n1 [2-[methyl({4-phenyl-6-[2-(pyrazin-2-yl)ethyl]quinolin-2-yl})amino]acetic acid] — higher, 1.28
- CCCCCCc1ccc2nc(N(C)c3nn[nH]n3)cc(-c3ccccc3)c2c1 [6-hexyl-N-methyl-4-phenyl-N-(2H-1,2,3,4-tetrazol-5-yl)quinolin-2-amine] — higher, 1.11
- CCCCCCc1ccc2nc([C@@H]3C[C@H]3C(=O)O)cc(-c3ccccc3)c2c1 (relative stereo) [trans-2-(6-hexyl-4-phenylquinolin-2-yl)cyclopropane-1-carboxylic acid] — higher, 1.14
- CCCCc1ccc2nc(N(C)CCC(=O)O)cc(-c3ccccc3)c2c1 [3-[(6-butyl-4-phenylquinolin-2-yl)(methyl)amino]propanoic acid] — higher, 1.1
- CCCCCCc1ccc2nc(N(C)CC(=O)NCCO)cc(-c3ccccc3)c2c1 [2-[(6-hexyl-4-phenylquinolin-2-yl)(methyl)amino]-N-(2-hydroxyethyl)acetamide] — higher, 1.11
- CCCC/C=C/c1ccc2nc(N(C)CC(=O)O)cc(-c3ccccc3)c2c1 [2-({6-[(1E)-hex-1-en-1-yl]-4-phenylquinolin-2-yl}(methyl)amino)acetic acid] — higher, 1.32
- CCCCCCCCCCc1ccc2nc(N(C)CC(=O)O)cc(-c3ccc(F)cc3)c2c1 [2-{[6-decyl-4-(4-fluorophenyl)quinolin-2-yl](methyl)amino}acetic acid] — higher, 1.37
- CCCCCCc1ccc2nc(CC3SC(=O)NC3=O)cc(-c3ccccc3)c2c1 (stereo not drawn) [5-[(6-hexyl-4-phenylquinolin-2-yl)methyl]-1,3-thi azolidine-2,4-dione] — higher, 1.33
- CCCCCCc1ccc2nc(N(C)CC(=O)O)cc(-c3cccc(C#N)c3)c2c1 [2-{[4-(3-cyanophenyl)-6-hexylquinolin-2-yl](methyl)amino}acetic acid] — higher, 1.26
- CN(CC(=O)O)c1cc(-c2ccccc2)c2cc(CCc3ccccc3)ccc2n1 [2-{methyl [4-phenyl-6-(2-phenylethyl)quinolin-2-yl]amino}acetic acid] — higher, 1.48
- CCCCc1ccc2nc(N(C)CC(=O)O)cc(-c3ccccc3)c2c1 [2-[(6-butyl-4-phenylquinolin-2-yl)(methyl)amino]acetic acid] — higher, 1.37
- CCCCCCc1ccc2nc(C(C)CC(=O)O)cc(-c3ccccc3)c2c1 (stereo not drawn) [3-(6-hexyl-4-phenylquinolin-2-yl)butanoic acid] — higher, 1.3
- CN(CC(=O)O)c1cc(-c2ccccc2)c2cc(/C=C/c3ccccc3)ccc2n1 [2-[methyl({4-phenyl-6-[(1E)-2-phenylethenyl]quinolin-2-yl})amino]acetic acid] — higher, 1.21
- CCCCCCc1ccc2nc(NCC(=O)O)cc(-c3ccc(F)cc3)c2c1 [2-([4-(4-fluorophenyl)-6-hexylquinolin-2-yl]amino}acetic acid] — higher, 1.12
- CN(CC(=O)O)c1cc(-c2ccccc2)c2cc(CCc3ccccn3)ccc2n1 [2-[methyl({4-phenyl-6-[2-(pyridin-2-yl)ethyl]quinolin-2-yl})amino]acetic acid] — higher, 1.39
- CCCCCCc1ccc2nc(/C=C3/SC(=O)NC3=O)cc(-c3ccccc3)c2c1 [5-[(6-hexyl-4-phenylquinolin-2-yl)methylidene]-1,3-thiazolidine-2,4-dione] — higher, 1.29
- CCCCCCc1ccc2nc(N(C)CC(=O)O)cc(-c3ccccc3F)c2c1 [2-{[4-(2-fluorophenyl)-6-hexylquinolin-2-yl](methyl)amino}acetic acid] — higher, 1.26
- CCCCCCc1ccc2nc(N3CCC(C(=O)O)C3)cc(-c3ccccc3)c2c1 (stereo not drawn) [1-(6-hexyl-4-phenylquinolin-2-yl)pyrrolidine-3-carboxylic acid] — higher, 1.24
- CCCCCCCc1ccc2nc(N(C)CC(=O)O)cc(-c3ccccc3)c2c1 [2-[(6-heptyl-4-phenylquinolin-2-yl)(methyl)amino]acetic acid] — higher, 1.4
- CCCCCCc1ccc2nc(N3CC(C(=O)O)C3)cc(-c3ccccc3)c2c1 [1-(6-hexyl-4-phenylquinolin-2-yl)azetidine-3-carboxylic acid] — higher, 1.27
- O=C(O)C1CCN(c2cc(-c3ccccc3)c3cc(CCc4ccccc4)ccc3n2)C1 (stereo not drawn) [1-[4-phenyl-6-(2-phenylethyl)quinolin-2-yl]pyrrolidine-3-carboxylic acid] — higher, 1.21
- CCCCCCc1ccc2nc(N(C)CC(=O)O)cc(-c3c(C)noc3C)c2c1 [2-{[4-(3,5-dimethyl-1,2-oxazol-4-yl)-6-hexylquinolin-2-yl](methyl)amino}acetic acid] — higher, 1.22
- CCCCCCc1ccc2nc(N(C)CC(=O)O)cc(-c3ccccc3C(=O)O)c2c1 [2-{2-[(carboxymethyl)(methyl)amino]-6-hexylquinolin-4-yl}benzoic acid] — higher, 1.17
- CCc1ccc(-c2ccc3nc(N(C)CC(=O)O)cc(-c4ccccc4)c3c2)cc1 [2-{[6-(4-ethylphenyl)-4-phenylquinolin-2-yl](methyl)amino}acetic acid] — higher, 1.06
- CCCCCCc1ccc2nc([C@H]3C[C@H]3C(=O)O)cc(-c3ccccc3)c2c1 (relative stereo) [cis-2-(6-hexyl-4-phenylquinolin-2-yl)cyclopropane-1-carboxylic acid] — higher, 1.36
- CCCCCCc1ccc2nc(OC(C)C(=O)O)cc(-c3ccccc3)c2c1 (stereo not drawn) [2-[(6-hexyl-4-phenylquinolin-2-yl)oxy]propanoic acid] — higher, 1.25
- CCCCCCc1ccc2nc(N(C)CC(=O)O)cc(-c3cccc(C)c3)c2c1 [2-{[6-hexyl-4-(3-methylphenyl)quinolin-2-yl](methyl)amino}acetic acid] — higher, 1.11

Target: T1, His6 tagged human recombinant FABP4 (Homo sapiens, UniProt P15090)
T1 construct: purchased Cayman Chemicals 10009549
Test: FABP4 TR-FRET assay: displacement of fluorescent fatty acid BODIPY FL C12
Conditions: inhibition of BODIPY FL C12 binding to His6-FABP4; 1.2 μL of 1.085 mM compound in DMSO per well; triplicates, mean percent inhibition
Source text: Activity of compounds with FABP4 was profiled using a Terbium (Tb) based time resolved fluorescence energy transfer (TR-FRET) assay. The assay measures the compound mediated displacement of the fluorescent fatty acid BODIPY FL C12 (Thermo Fisher; catalog number D3822) from His6 tagged human recombinant FABP4 (His6-FABP4; Cayman Chemicals, catalog number 10009549) via recording the energy transfer from TB donor molecule on anti-His6-tag antibody to acceptor BODIPY moiety. Briefly, compounds and BODIPY FL C12 were prepared at a concentration of 1.085 mM and 4.2 μM, respectively, in DMSO. 1.2 μL of each compound or DMSO (vehicle control) and 1.2 μL of BODIPY FL C12 were added into the wells of a 384-well black polypropylene plate. His6-FABP4 and Tb anti-His6 antibody were prepared in the assay buffer (25 mM Tris/HCl, pH 7.4, 0.4 mg/ml γ-globulins, 0.010% NP-40, 1 mM DTT) at a concentration of 83 nM and 49.6 nM, respectively. The protein and antibody solutions were then mixed at a ratio of 34:7 (v/v) and incubated on ice for 30 minutes. The assay was initiated by adding 41 μL of the resulting protein/antibody solution into the wells containing the compounds and BODIPY FL C12. The plate was centrifuged and incubated at room temperature for 10 min. The TR-FRET signals were recorded using an EnVision Multilabel plate reader (PerkinElmer; TB excitation 320 nm, BODIPY FL C12 emission 520 nm; TB emission 615 nm). Relative fluorescence ratio (520 nm*10,000/615 nm) were used to calculate the compound mediated inhibition of BODIPY C12 FL fatty acid binding to FABP4. The compounds were tested in triplicates and the results were represented as mean percent inhibition (compound*100/DMSO)±standard deviation (SD). Glucose consumption and FABP4 inhibition is shown below in Table 3 below. The compounds showing no inhibition of activity in the TR-FRET assay are marked as N.A. N.D. stands for “not determined”.

T1 sequence (P15090 whole entry): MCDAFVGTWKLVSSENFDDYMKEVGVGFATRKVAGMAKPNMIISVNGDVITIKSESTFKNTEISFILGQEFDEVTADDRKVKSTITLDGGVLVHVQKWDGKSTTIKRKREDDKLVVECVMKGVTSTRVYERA

Point of comparison: `CCN(CC)CCc1ccc2nc(N(C)CC(=O)O)cc(-c3ccccc3)c2c1` [2-({6-[2-(diethylamino)ethyl]-4-phenylquinolin-2-yl}(methyl)amino)acetic acid], inhibition at 1085 µM (stock) 5.17%. Against it:
- CCCCc1ccc2nc(N3CCCC(C(=O)O)C3)cc(-c3cccc(C#N)c3)c2c1 (stereo not drawn) [1-[6-butyl-4-(3-cyanophenyl)quinolin-2-yl]piperidine-3-carboxylic acid] — higher, 24.3%
- CN(CC(=O)O)c1cc(-c2ccccc2)c2cc(CCc3cnccn3)ccc2n1 [2-[methyl({4-phenyl-6-[2-(pyrazin-2-yl)ethyl]quinolin-2-yl})amino]acetic acid] — lower, 4.98%
- CN(CC(=O)O)c1cc(-c2ccccc2)c2cc(CCN3CCc4ccccc43)ccc2n1 [2-({6-[2-(2,3-dihydro-1H-indol-1-yl)ethyl]-4-phenylquinolin-2-yl}(methyl)amino)acetic acid] — higher, 76.3%
- CN(CC(=O)O)c1cc(-c2ccccc2)c2cc(CCN3CCc4ccccc4C3)ccc2n1 [2-[methyl({4-phenyl-6-[2-(1,2,3,4-tetrahydroisoquinolin-2-yl)ethyl]quinolin-2-yl})amino]acetic acid] — higher, 21.7%
- CN(CC(=O)O)c1cc(-c2ccccc2)c2cc(CCc3nc4ccccc4n3C)ccc2n1 [2-[methyl({6-[2-(1-methyl-1H-1,3-benzodiazol-2-yl)ethyl]-4-phenylquinolin-2-yl})amino]acetic acid] — higher, 30.3%
- CN(CC(=O)O)c1cc(-c2ccccc2)c2cc(CCN3CCC(O)CC3)ccc2n1 [2-({6-[2-(4-hydroxypiperidin-1-yl)ethyl]-4-phenylquinolin-2-yl}(methyl)amino)acetic acid] — higher, 14.3%
- CN(CC(=O)O)c1cc(-c2ccccc2)c2cc(CCN3CCCC3)ccc2n1 [2-[methyl({4-phenyl-6-[2-(pyrrolidin-1-yl)ethyl]quinolin-2-yl})amino]acetic acid] — lower, 2.04%
